Experimental findings from patent US6911470B1, “Polyoxometalate compounds as antiviral agents” (priority 1988, dated 2005) are described below.

In one data set the test system is human PBM cells. In words: Cytotoxicity assay on uninfected PHA stimulated human PBMC (trypan blue). As to conditions: Table 2; >100 μM = Nontoxic; read-out: IC50 Toxicity PBM Cells. Format: cell-based. Here is the method: Cells. […] PBS), and pelleted at 300×g for 10 minutes. […] Cytotoxicity assay. The drugs were evaluated for their potential toxic effects on uninfected PHA stimulated human PBMC. Flasks were seeded so that the final cell concentration was 2×10^5 cells/ml. The cells were cultured with and without drug for 6 days, at which time aliquots were counted for cell viability, as assessed by the trypan blue dye-exclusion method using a hemacytometer. The median inhibitory concentration (IC50) was calculated using the median effect method (Chou et al, Elsevier-Biosoft, Elsevier Science Publishers, Cambridge, U.K., 1985; Chou et al, Adv. Enz. Regul. 22, 27-55, 1984). Median-effect method. Dose-effect relationships were analyzed by the median-effect equation (Chou et al, Adv. Enz. Regul. 22, 27-55, 1984). The slope (m) and median effective and inhibitory concentration (EC50 and IC50) values were obtained by using a computer program developed by Chou and Chou (Chou et al, Elsevier-Biosoft, Elsevier Science Publishers, Cambridge, U.K., 1985).

Data set [1] deals with T1, HIV-1 reverse transcriptase (Human immunodeficiency virus type 1 group M subtype B, UniProt P04585).
T1 construct: HIV-1 RT was isolated from detergent disrupted virions; made in house; host or cells: virions pelleted from culture fluid of HIV-1-infected PHA-stimulated human PBMC; DEAE-cellulose and phosphocellulose chromatography
In words: Evaluation of compounds on purified retroviral RT (cell-free, virion-derived). Format: biochemical. As to conditions: Table 2; read-out: EC-50 Cell-Free RT (virion-derived). Here is the method:
Evaluation of compounds on purified retroviral RT. HIV-1 RT was isolated from detergent disrupted virions obtained from the cell-free supernatant of infected PHA-stimulated PBMC. The enzyme was purified by passing the extract through ion-exchange chromatography columns, as described previously (Eriksson et al, Antimicrob. Agents Chemother. 31, 600-604, 1977. Briefly, 750 ml of culture fluid harvested from HIV-1-infected PBMC were ultracentrifuged to pellet the virus. The pellet was dissolved in buffer A [50 mM Tris-HCl, pH 7.9/0.25% Nonidet P-40/5 mM dithiothreitol/20% (vol/vol) glycerol] containing 1 mM EDTA, and freeze-thawed four times. After clarification by centrifugation, the enzyme was partially purified from the supernatant by passing the extract through a DEAE-cellulose column (Whatman DE-52; 2.6×15 cm) previously equilibrated with buffer B (50 mM Tris-Cl, pH 7.9, 50 mM KCl, 1 mM EDTA, 1 mM dithiothreitol, 20% glycerol). Elution was performed using a linear gradient 50-500 mM KCl in buffer B. Fractions containing enzyme activity were dialyzed against buffer B and were further purified on a phosphocellulose column (Whatman P-11) using a linear KCl (50-500 mM) gradient in buffer B. The peak fractions were pooled and dialyzed against buffer B. The enzyme was characterized as HIV-1 reverse transcriptase based on its cation, salt, pH, and template requirements according to previous descriptions (Eriksson et al, Antimicrob. Agents Chemother. 31, 600-604, 1977). The standard reaction mixture was used to evaluate the inhibitory effect of the drugs, as previously described (Eriksson et al, Antimicrob. Agents Chemother. 31, 600-604, 1977). Briefly, the reaction mixtures (final volume 100 μl) contained 100 mM Tris-HCl, pH 8.0, 50 mM KCl, 2 mM MgCl2, 5 mM DTT, 400 ug/ml bovine serum albumin, 3 μg/ml (rA)·(dT)12-18 and 1 μM of [^3H]TTP (specific activity 82.3 Ci/mmol). The reactions were started by the addition of 10 μl of partially purified RT, incubated at 37° C. for 60 min., and processed as previously described (Eriksson et al, Antimicrob. Agents Chemother. 31, 600-604, 1977).
Median-effect method. Dose-effect relationships were analyzed by the median-effect equation (Chou et al, Adv. Enz. Regul. 22, 27-55, 1984). The slope (m) and median effective and inhibitory concentration (EC50 and IC50) values were obtained by using a computer program developed by Chou and Chou (Chou et al, Elsevier-Biosoft, Elsevier Science Publishers, Cambridge, U.K., 1985).

In a further data set the test system is HSV-1. Briefly: Plaque reduction assay for herpes simplex viruses in Vero cells. The class given is cell-based, herpes simplex virus type 1. As to conditions: Table 2; read-out: EC-50 HSV-1. As to the method: (§1) Cell culture assays for heroes simplex viruses. Mycoplasma-free Vero cells, obtained from Flow Laboratory (McLean, Va.), were used for the plaque assays. The methodologies for the plaque reduction and cytotoxicity assays have been previously described (Schinazi et al, Antimicrob. Agents Chemother. 22, 499-507, 1982). Median-effect method. Dose-effect relationships were analyzed by the median-effect equation (Chou et al, Adv. Enz. Regul. 22, 27-55, 1984). The slope (m) and median effective and inhibitory concentration (EC50 and IC50) values were obtained by using a computer program developed by Chou and Chou (Chou et al, Elsevier-Biosoft, Elsevier Science Publishers, Cambridge, U.K., 1985).

In a further data set the test system is HSV-2. Described as above. The settings on record: Table 2; read-out: EC-50 HSV-2. The class given is cell-based, herpes simplex virus type 2. As to the method:
as §1

The next data set has as its system Friend, Spleen (EY-10). Briefly: UV/XC assay for murine retroviruses in SC-1 cells. Format: cell-based, murine retrovirus. The settings on record: Table 2; read-out: EC-50 Friend, Spleen (EY-10). Here is the method: UV/XC Assay for Murine Retroviruses Cells. Mouse embryo fibroblasts (SC-1) and XC cells were obtained from the American Type Culture Collection, Rockville, Md. The XC cell line was derived from a transplantable tumor induced in newborn White-Weston rats by the intramuscular injection of the Prague strain of Rous sarcoma virus. […] The cells were maintained in Eagle's minimum essential medium with Hanks balanced salt solution, supplemented with penicillin (100 U/ml), streptomycin (100 μg/ml), sodium bicarbonate (24 mM), Hepes (25 mM), and either 2 (maintenance) or 10 (growth) percent inactivated newborn or fetal calf serum.
Virus quantitation by UV-XC assay. The XC test (Rowe et al, Virology 42, 1136-1139, 1970) is a plaque-type of assay which tests for the presence and titer of B- and N-tropic murine leukemia viruses. Because these viruses produce no overt signs of infection of SC-1 mouse cells, it is necessary to overlay the virus producing culture with an indicator cell line, XC. The number of syncytia that are produced is a direct measure of the virus titer in FFU.
Six-well plates were seeded with 1×10^5 SC-1 mouse cells on the first day. On the following day the medium was removed and the inoculum (0.2 ml) was added in medium containing polybrene (4 μg/ml). For determining the antiviral activity of the compounds in culture, the virus dilution selected produced in untreated cultures about 80 foci per well. After 1 hour, the virus was removed and various concentrations of the drug were added. The plates were replenished with medium on the third and fifth days. The medium was removed on the eighth day and the cells exposed to UV irradiation (60 erg/mm^2 per sec) for 30 seconds. Medium containing 10^6 XC cells was then added to each plate. On the eleventh day, the plates were fixed with 10% buffered Formalin and stained with crystal violet. Comparison of the number of foci to those found in virus-infected cells receiving no drug allowed determination of whether a drug at a particular concentration was effective. Control cells without virus but receiving the drug provided an estimate of the drug's toxic effects as quantitated by using trypan blue staining.

The next data set relates to Vero cells. In words: Cytotoxicity assay in Vero cells. Format: cell-based. As to conditions: Table 2; >100 μM = Nontoxic; read-out: IC50 Toxicity Vero Cells. The source says: Cell culture assays for heroes simplex viruses. Mycoplasma-free Vero cells, obtained from Flow Laboratory (McLean, Va.), were used for the plaque assays. The methodologies for the plaque reduction and cytotoxicity assays have been previously described (Schinazi et al, Antimicrob. Agents Chemother. 22, 499-507, 1982).

Data set [2] in a line: Comparison of toxicity of polyoxometalate compounds in mice (mortality, haematology). Also noted: MCV (mean corpuscular volume): unit not given here. As to conditions: BID × 6, 60 mkd i.p. Format: in vivo. The source says: Comparison of Toxicity of Polyoxometalate Compounds Mice.
In vivo antiviral experiments. […] Treatment was continued daily for 6 or 10 days.

In data set [3] the test system is human granulocyte-macrophage precursor cells. The class given is cell-based. The source says:
Preparation of Cells. Human bone marrow cells were collected by aspiration from the posterior iliac crest of normal healthy volunteers, treated with heparin and the mononuclear population separated by Ficoll-Hypaque gradient centrifugation. Cells were washed twice in Hanks balanced salt solution, counted with a hemacytometer and their viability was >98% as assessed by trypan blue exclusion.
Assay of Colony-Forming Unit Granulocyte-Macrophage (CFU-GM) for Drug Cytotoxicity. The culture assay for CFU-GM was performed using a bilayer soft-agar method as recently described (Sommadossi et al, Antimicrob. Agents Chemother. 31, 452-454, 1987). McCoy 5A nutrient medium supplemented with 15% dialyzed fetal bovine serum (heat inactivated at 56° C. for 30 min.) (Gibco Laboratories, Grand Island, N.Y.) was used in all experiments. This medium was completely lacking in thymidine and uridine. Cells were cloned in 0.3% agar in the presence of increasing concentrations of the modulating compound or in medium alone (control). After 14 days of incubation at 37° C. in a humidified atmosphere of 5% CO2 in air, colonies (≧50 cells) were counted using an inverted microscope.
The toxicities of a variety of polyoxometalates with respect to human bone marrow cells (human granulocyte-macrophage precursor cells) were assessed.

Some results are limits rather than exact numbers.

Consider “(HisH^+)p(H^+)4-pST, where p=1-4 [(HISH^+)nH^+(4−n)ST]”, for which the results for the IC50 in the data set with human PBM cells and in the data set on Vero cells were 182 µM and over 100 µM, respectively. The EC50 in data set [1] came out at 22.3 µM; in the data set on HSV-1, 0.95 µM; with HSV-2, 0.87 µM; in the data set on Friend, Spleen (EY-10) it was 0.92 µM.
For the substance “(LysH^+)q(H^+)5-qST, where q=1-5 [(LYSH^+)nH^+(4−n)ST]”, the results for the IC50 with human PBM cells and with Vero cells were 2450 µM and over 100 µM, respectively. Besides, the EC50 was 20.5 µM in data set [1]; 0.32 µM in the data set with HSV-1; under 1 µM in the data set on HSV-2; 0.95 µM in the data set on Friend, Spleen (EY-10).
As for (NH4)4[SiW12O40] [NH4ST], in data set [2] (bled on day 17), the “Hct (hematocrit)” value is listed as 17.47 ± 7.08%, the “Hgb (hemaglobin)” value amounted to 6.42 ± 2.39 g/dL, the MCH was determined as 17.6 ± 4.64 pg and the “MCHC (mean corpuscular hemoglobin concentration)” value was found to be 37.92 ± 9.82 g/dL. For the same substance, in data set [2] (bled on day 17), the “MCV (mean corpuscular volume)” value stood at 43.38 ± 0.51, the “PLT (platelates) (×1000)” value is recorded as 246.46 ×1000, the “RBC (×1000000)” value is given as 3.76 ± 1.57 ×1000000 and the “RDW (width of red cells)” value worked out at 36.76 ± 2.63%. Moreover, the “WBC (×1000)” value in data set [2] (bled on day 17) is recorded as 7.18 ± 3.9 ×1000. Further, in data set [2] (dead/total), the Mortality was 0/5. The “toxicity to human bone marrow cells (order of toxicity, FIG. 6)” value in data set [3] is “NH4BT (least toxic)<BT and NH4ST<AZT and ST”.
